This is an account of results in ChEMBL document CHEMBL1124922 (J Med Chem, 1990).

Experiment [1] is described as follows: Evaluated for cytotoxicity under aerobic conditions against AA8 cells using microassay. It is filed as cell-based. Conditions: Cricetulus griseus, CHO-AA8.
A short description of experiment [2]: Evaluated for cytotoxicity under aerobic conditions against UV4 cells using microassay. In kind it is cell-based. Conditions: Cricetulus griseus.
A further experiment is filed under the species Cricetulus griseus. Briefly: Evaluated for hypersensitivity factor (HF) (HF = IC50 AA8 / IC50 UV-4) values are intra experiment ratios. In kind it is functional.

Regarding `O=[N+]([O-])c1cccc(N(CCO)CCO)c1`, half-maximal inhibition in experiment [1] (IC50) was put at 3060 µM.

For `O=[N+]([O-])c1ccccc1N(CCO)CCO`, the IC50 (as a rule, the point on the concentration scale where inhibition reaches its midpoint) in experiment [1] is 7970 µM. This IC50 lies about 2.6-fold higher than the previous one.

In the case of `CS(=O)(=O)OCCN(CCOS(C)(=O)=O)c1ccccc1`, the results for the IC50 in experiment [1] and in experiment [2] were 13.6 µM and 0.59 µM, respectively. In addition, in the experiment filed under Cricetulus griseus, the Ratio was found to be 30.

`O=[N+]([O-])c1ccc(N(CCO)CCO)cc1` displayed a 50% inhibitory concentration (IC50) in experiment [1] of 3200 µM.

Compound `CS(=O)(=O)OCCN(CCOS(C)(=O)=O)c1ccc([N+](=O)[O-])cc1` displayed an IC50 in experiment [2] of 1.39 µM. Besides, the Ratio in the experiment listed under Cricetulus griseus is above 1.
